Structures are written as SMILES.

The target in one assay is T1, KRAS-G12C/SOS1 (Homo sapiens, UniProt Q07889).
T1 construct: purchased Cisbio 63ADKOOOCB16PEG
T1 sequence (Q07889 1-1333): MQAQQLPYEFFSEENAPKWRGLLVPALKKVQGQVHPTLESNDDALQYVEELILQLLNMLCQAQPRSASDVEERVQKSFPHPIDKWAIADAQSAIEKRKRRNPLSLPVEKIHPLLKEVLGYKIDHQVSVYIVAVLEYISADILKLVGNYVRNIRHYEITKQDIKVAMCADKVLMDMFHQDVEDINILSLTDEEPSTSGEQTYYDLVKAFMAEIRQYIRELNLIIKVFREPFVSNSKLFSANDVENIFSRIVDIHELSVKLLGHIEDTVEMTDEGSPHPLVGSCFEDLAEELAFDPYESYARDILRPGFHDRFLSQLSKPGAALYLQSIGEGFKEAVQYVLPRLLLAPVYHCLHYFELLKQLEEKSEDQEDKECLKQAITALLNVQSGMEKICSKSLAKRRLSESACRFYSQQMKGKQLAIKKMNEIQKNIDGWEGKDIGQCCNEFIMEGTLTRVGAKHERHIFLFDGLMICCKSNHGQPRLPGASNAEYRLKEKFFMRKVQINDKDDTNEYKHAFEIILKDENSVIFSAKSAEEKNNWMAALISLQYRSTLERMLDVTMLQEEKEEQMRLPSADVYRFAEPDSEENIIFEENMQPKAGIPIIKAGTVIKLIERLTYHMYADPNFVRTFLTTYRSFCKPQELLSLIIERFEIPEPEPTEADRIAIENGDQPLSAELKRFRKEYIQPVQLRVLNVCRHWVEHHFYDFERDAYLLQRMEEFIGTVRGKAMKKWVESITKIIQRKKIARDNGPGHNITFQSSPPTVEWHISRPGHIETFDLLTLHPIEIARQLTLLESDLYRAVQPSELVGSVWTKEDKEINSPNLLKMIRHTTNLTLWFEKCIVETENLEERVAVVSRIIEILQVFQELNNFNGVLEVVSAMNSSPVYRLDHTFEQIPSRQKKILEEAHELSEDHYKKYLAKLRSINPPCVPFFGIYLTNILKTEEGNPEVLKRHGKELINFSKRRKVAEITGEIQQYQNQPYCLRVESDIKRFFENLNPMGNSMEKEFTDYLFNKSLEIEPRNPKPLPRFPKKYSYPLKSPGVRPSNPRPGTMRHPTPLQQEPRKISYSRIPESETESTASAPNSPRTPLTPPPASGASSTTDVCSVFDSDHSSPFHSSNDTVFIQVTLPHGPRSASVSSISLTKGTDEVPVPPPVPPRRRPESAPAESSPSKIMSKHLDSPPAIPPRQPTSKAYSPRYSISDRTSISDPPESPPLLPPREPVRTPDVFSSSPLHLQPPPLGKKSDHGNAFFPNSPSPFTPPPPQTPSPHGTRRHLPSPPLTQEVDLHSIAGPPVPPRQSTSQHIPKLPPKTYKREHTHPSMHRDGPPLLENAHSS
The assay is described as follows: KRAS-G12C/SOS1 binding assay (HTRF). Particulars: inhibition of KRAS-G12C/SOS1 binding. The protocol: The following method was used to determine the extent of inhibition of KRAS-G12C/SOS1 binding by the preferred compounds of the present invention under in vitro conditions. In this method, the competitive inhibition of KRAS-G12C/SOS1 binding by the preferred compounds was assayed by the homogeneous time-resolved fluorescence (HTRF) technology using the KRAS-G12C/SOS1 binding assay kit (Cisbio, 63ADKOOOCB16PEG).
The experimental procedures were as follows (refer to the kit instructions for details): the compounds of the present invention were each firstly dissolved in DMSO at a concentration of 20 mM, and then diluted in an equal gradient with a buffer in the kit, so that the final concentrations of the test compounds in the reaction system were in a range of 10000 nM-0.04 nM, and the final concentration of DMSO was 0.5%. 2 μL of the compounds were each incubated with 4 μL of 1×Tag1-SOS1, 4 μL of 1×Tag2-KRAS-G12C (containing 10 μM guanosine triphosphate, GTP) at 25° C. for 15 min. Then 5 μL of 1× Anti-Tag1-Tb3+ and 5 μL of 1× Anti-Tag2-XL665 were added to the reaction system, and the mixture was incubated on ice for 3 h. After the incubation, the fluorescence intensity of each well was measured at the excitation wavelength of 337 nm, the fluorescence intensity of each well was read at the emission wavelengths of 620 nm and 665 nm on a microplate reader EnVision (PerkinElmer, 2105) in an HTRF mode, and the Ratio value was calculated by the formula Ratio=(665 nm/620 nm)×[…]. The inhibition rates of the compounds at each concentration were calculated by comparing the fluorescence intensity ratio with that of the control group, and then nonlinear curve fitting was performed by GraphPad Prism 8 in the logarithmic concentration-inhibition rate to obtain the IC50 values of the compounds, as shown in Table 1.

Another assay addresses T2, SOS1 protein (Homo sapiens, UniProt Q07889).
T2 sequence (Q07889 1-1333): T1 sequence (Q07889 1-1333)
The assay can be described thus: SOS1 degradation assay (Western blot), NCI-H358 cells. Also noted: The degradation of SOS1 by the compounds was investigated on KRAS G12C mutant human non-small cell lung cancer cells NCI-H358; host or cells: NCI-H358 (human cancer cell lines). Particulars: SOS1 degradation, NCI-H358 cells, 24 h, Western blot; for DC50: read-out: NCI-H358 (G12C) DC50; for Dmax: read-out: NCI-H358 (G12C) Dmax. Format: cell-based. In outline:
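Cells at 5×10^5 per well were treated for 24 h at 37 °C with compound at 0.03–3000 nM final. SOS1 in lysates was measured by Western blot with chemiluminescent densitometry and normalised to the control group. DC50 and Dmax came from nonlinear fits against log concentration.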
A general note: A western blot detects proteins with antibodies after separation by electrophoresis.

The term IC50 denotes the concentration that gives 50% inhibition. A low value points to greater potency. One may read the DC50 as the concentration giving 50% degradation. What is called Dmax is the greatest extent of degradation seen. The compound `COc1cc2nc(C)nc(N[C@H](C)c3cc(-c4c(Cl)cccc4CN(C)C)cs3)c2cc1[C@H]1CC[C@H](C(=O)N2CCC(COCC3CCN(C(=O)c4ccc(Cl)c(N5CCC(=O)NC5=O)c4)CC3)CC2)CC1` [Example 65, 1-(2-chloro-5-(4-(((1-((1R,4R)-4-(4-(((R)-1-(4-(2-chloro-6-((dimethylamino)methyl)phenyl)thien-2-yl)ethyl)amino)-7-methoxy-2-methylquinazolin-6-yl)cyclohexane-1-carbonyl)piperidin-4-yl)methoxy)methyl)piperidine-1-carbonyl)phenyl)dihydropyrimidine-2,4(1H,3H)-dione] yielded an IC50 at KRAS-G12C/SOS1 of no more than 0.015 µM. In addition, on SOS1 protein, the DC50 was 1 to 10 µM and the Dmax was less than 30%.
For `COc1cc2nc(C)nc(N[C@H](C)c3cc(N)cc(C(F)(F)F)c3)c2cc1[C@H]1CC[C@H](C(=O)N2CCN(CCCOC3CCN(C(=O)c4ccc(Cl)c(N5CCC(=O)NC5=O)c4)CC3)CC2)CC1` [Example 28, 1-(5-(4-(3-(4-((1R,4R)-4-(4-(((R)-1-(3-amino-5-(trifluoromethyl)phenyl)ethyl)amino)-7-methoxy-2-methylquinazolin-6-yl)cyclohexane-1-carbonyl)piperazin-1-yl)propoxy)piperidine-1-carbonyl)-2-chlorophenyl)dihydropyrimidine-2,4(1H,3H)-dione], in that order: no more than 0.015 µM, less than 0.05 µM and 50 to 80%.
As to `CNCc1cccc(Cl)c1-c1csc([C@@H](C)Nc2nc(C)nc3cc(OC)c([C@H]4CC[C@H](C(=O)N5CCC(CCOCC6CCN(C(=O)c7ccc(Cl)c(N8CCC(=O)NC8=O)c7)CC6)CC5)CC4)cc23)c1` [Example 69, 1-(2-chloro-5-(4-((2-(1-((1R,4R)-4-(4-(((R)-1-(4-(2-chloro-6-((methylamino)methyl)phenyl)thien-2-yl)ethyl)amino)-7-methoxy-2-methylquinazolin-6-yl)cyclohexane-1-carbonyl)piperidin-4-yl)ethoxy)methyl)piperidine-1-carbonyl)phenyl)dihydropyrimidine-2,4(1H,3H)-dione], the IC50 on KRAS-G12C/SOS1 is no more than 0.015 µM. At SOS1 protein, the half-maximal degradation concentration (DC50) is less than 0.05 µM and the Dmax was in the range of 50 to 80%.
For `COc1cc2nc(C)nc(N[C@H](C)c3cc(-c4c(Cl)cccc4CN(C)C)cs3)c2cc1[C@H]1CC[C@H](C(=O)N2CCN(CCCCC3CCN(C(=O)c4ccc(Cl)c(N5CCC(=O)NC5=O)c4)CC3)CC2)CC1` [Example 71, 1-(2-chloro-5-(4-(4-(4-((1R,4R)-4-(4-(((R)-1-(4-(2-chloro-6-((dimethylamino)methyl)phenyl)thien-2-yl)ethyl)amino)-7-methoxy-2-methylquinazolin-6-yl)cyclohexane-1-carbonyl)piperazin-1-yl)butyl)piperidine-1-carbonyl)phenyl)dihydropyrimidine-2,4(1H,3H)-dione], in that order: no more than 0.015 µM, less than 0.05 µM and 80 to 100%.
Take `COc1cc2nc(C)nc(N[C@H](C)c3cc(-c4c(Cl)cccc4CN(C)C)cs3)c2cc1[C@H]1CC[C@H](C(=O)N2CCC(CCOCC3CCN(C(=O)c4ccc(C(F)(F)F)c(N5CCC(=O)NC5=O)c4)CC3)CC2)CC1` [Example 57, 1-(5-(4-((2-(1-((1R,4R)-4-(4-(((R)-1-(4-(2-chloro-6-((dimethylamino)methyl)phenyl)thien-2-yl)ethyl)amino)-7-methoxy-2-methylquinazolin-6-yl)cyclohexane-1-carbonyl)piperidin-4-yl)ethoxy)methyl)piperidine-1-carbonyl)-2-(trifluoromethyl)phenyl)dihydropyrimidine-2,4(1H,3H)-dione]: the IC50 at KRAS-G12C/SOS1 is no more than 0.015 µM. Also, the DC50 at SOS1 protein was less than 0.05 µM.
Regarding `CNCc1ccccc1-c1csc([C@@H](C)Nc2nc(C)nc3cc(OC)c([C@H]4CC[C@H](C(=O)N(C)CCCC5CCN(C(=O)c6ccc(Cl)c(N7CCC(=O)NC7=O)c6)CC5)CC4)cc23)c1` [Example 47, (1R,4R)—N-(3-(1-(4-chloro-3-(2,4-dioxotetrahydropyrimidin-1(2H)-yl)benzoyl)piperidin-4-yl)propyl)-4-(7-methoxy-2-methyl-4-(((R)-1-(4-(2-((methylamino)methyl)phenyl)thien-2-yl)ethyl)amino)quinazolin-6-yl)-N-methylcyclohexane-1-carboxamide], on KRAS-G12C/SOS1, the IC50 is no more than 0.015 µM. In addition, on SOS1 protein, the DC50 is 1 to 10 µM and the Dmax was less than 30%.
For `COc1cc2nc(C)nc(N[C@H](C)c3cc(-c4c(Cl)cccc4CN(C)C)cs3)c2cc1[C@H]1CC[C@H](C(=O)N2CCC(CCCC3CCN(C(=O)c4ccc(Cl)c(N5CCC(=O)NC5=O)c4)CC3)CC2)CC1` [Example 79, 1-(2-chloro-5-(4-(3-(1-((1R,4R)-4-(4-(((R)-1-(4-(2-chloro-6-((dimethylamino)methyl)phenyl)thien-2-yl)ethyl)amino)-7-methoxy-2-methylquinazolin-6-yl)cyclohexane-1-carbonyl)piperidin-4-yl)propyl)piperidine-1-carbonyl)phenyl)dihydropyrimidine-2,4(1H,3H)-dione], in that order: no more than 0.015 µM, 0.05 to 0.1 µM and 50 to 80%.
Taken in the same sequence, the figures for `COc1cc2nc(C)nc(N[C@H](C)c3cc(-c4c(Cl)cccc4CN(C)C)cs3)c2cc1C1=CCC(C(=O)N2CCC(CCOCC3CCN(C(=O)c4ccc(Cl)c(C5CCC(=O)NC5=O)c4)CC3)CC2)CC1` (stereo partly drawn) [Example 46, 3-(2-chloro-5-(4-((2-(1-(4-(4-(((R)-1-(4-(2-chloro-6-((dimethylamino)methyl)phenyl)thien-2-yl)ethyl)amino)-7-methoxy-2-methylquinazolin-6-yl)cyclohex-3-ene-1-carbonyl)piperidin-4-yl)ethoxy)methyl)piperidine-1-carbonyl)phenyl)piperidine-2,6-dione] were no more than 0.015 µM, less than 0.05 µM and 50 to 80%.

These data come from patent US20240261417A1, “SOS1 DEGRADING AGENT AND PREPARATION METHOD THEREFOR AND APPLICATION THEREOF” (SHANGHAI LEADINGTAC PHARMACEUTICAL CO. LTD., priority 2021, published 2024).
